Source: US6328986A, “Method of deterring birds from plant and structural surfaces” (priority 2000, dated 2001)

Columns and labels:
birds [1] = test: Avian perching deterrent test, all 3 test species (Example 7); format: in vivo, red-winged blackbirds, brown-headed cowbirds, fish crows
Description: (§1) Two (2) pens (10×20×6 feet) constructed of wood and aviary wire in a roofed outdoor aviary with a concrete floor were erected. At one end of each pen a water bowl and a food bowl containing the birds' maintenance diet was provided. On the morning of day 1, the test birds were transferred from their holding cages to each of the test pens. In each pen, there was one centrally located perch. At 0800 on the morning of day 2, this perch was removed and 2 test perches were installed, one in each of the corners at the end of the pen away from the food and water. For red-winged blackbirds (Agelaius phoeniceus) and brown-headed cowbirds (Molothrus ater), the perches were made of aluminum rod, 1.2 m long and 1.0 cm in diameter. For fish crows (Corvus ossigragus), the test perches were hollow stainless steel pipe, 1.2-m long and 2.25 cm in diameter. One of the test perches (randomly determined) was coated with a product containing 50% AQ as the active ingredient (the "repellent"), and the other was uncoated. The repellent was applied to the perches with a paint brush 24-48 hours before the test. The repellent was easily applied and appeared somewhat like thinned paint. It covered the metal surfaces very well, with some streaking, and formed an opaque coating that was dry to the touch by the start of the trial. Approximately 7.5 g wet weight was applied to each crow perch and approximately 3.5 g to each blackbird/cowbird perch.
(§2) Test perches remained in the pens until 1500 on day 3 at which time the birds were captured, banded and released. The activity was videotaped in each pen during 3 30-min periods daily: 0800-0830, 1100-1130, and 1400-1430. The videotapes were reviewed to determine bird use of the perches. The number of birds on each of the test perches were recorded at 1-min intervals. Activity and locations of birds not on the perches was also noted. Five (5) groups of blackbirds and cowbirds and 4 groups of fish crows were tested. For blackbirds and cowbirds, there were 4 birds in each test group. For fish crows, we used 2 birds per pen.
To analyze responses of the birds to the perch treatment, the mean number of birds on each perch during each of the 6 30-min observation periods was used. The data are expressed as birds/min. A separate 2-way repeated measures analysis of variance for each of the 3 bird species was performed to test the null hypothesis of equal use between the two perches.

fish crows = test: Avian perching deterrent test, fish crows (Example 7); format: in vivo, Corvus ossigragus
Description: as §1
as §2, with “Five (5) groups of blackbirds and cowbirds and 4 groups of fish crows were tested. For blackbirds and cowbirds, there were 4 birds in each test group. For fish crows, we used 2 birds per pen.” left out
(§3) To analyze responses of the birds to the perch treatment, the mean number of birds on each perch during each of the 6 30-min observation periods was used. The data are expressed as birds/min. […]

brown-headed cowbirds = test: Avian perching deterrent test, brown-headed cowbirds (Example 7); format: in vivo, Molothrus ater
Description: as §1, with “The repellent was applied to the perches with a paint brush 24-48 hours before the test. The repellent was easily applied and appeared somewhat like thinned paint. It covered the metal surfaces very well, with some streaking, and formed an opaque coating that was dry to the touch by the start of the trial. Approximately 7.5 g wet weight was applied to each crow perch and approximately 3.5 g to each blackbird/cowbird perch.” left out
Test perches remained in the pens until 1500 on day 3 at which time the birds were captured, banded and released. […] The number of birds on each of the test perches were recorded at 1-min intervals. […]
as §3

pigeons [2] = test: Deterrence of pigeons from metal beam of sports arena (Example 6); format: in vivo; settings: four ounces of 50% dispersion in 29 gallons of water
Description: (§4) In the following examples, the treating material was an aqueous dispersion of small particles of 9,10-anthraquinone containing 50% by weight of the anthraquinone and a small amount of surfactant.
Four ounces of a 50% by weight dispersion of anthraquinone in water were mixed with 29 gallons of water. The mixture was sprayed on a twenty foot section of a metal beam in the superstructure of a large sports arena. The treated beam section was open to the atmosphere and had become a roost for pigeons. Prior to the treatment, a section of walkway beneath the beam was cleaned weekly of 50-60 bird droppings. After more than 30 days following treatment of the beam with the above-described dilute anthraquinone dispersion, the pigeons had not returned to the roosting site.

seagulls = test: Deterrence of seagulls from flat roof (Example 3); format: in vivo; settings: 50% by weight aqueous dispersion of 9,10-anthraquinone
Description: as §4
A large number of seagulls regularly roosted on the flat roof of an industrial building in Northern California.

pigeons [3] = test: Deterrence of pigeons from steel beams of aircraft hangar (Example 5); format: in vivo; settings: 50% by weight aqueous dispersion of 9,10-anthraquinone
Description: as §4
Pigeons regularly roosted on the exposed steel beams within a large aircraft hangar in Wilmington Del.

geese [4] = test: Deterrence of geese from loafing/roosting on grassy turf (Example 1); format: in vivo
Protocol: A formulation containing 50% wt., basis total formulation, of 9,10-anthraquinone dispersed in water with a small amount of surfactant and thickener was prepared and sprayed onto untreated grassy turf in an area where geese normally loaf or roost. One-third acre of turf was treated with areas of untreated turf bordering on both sides of the treated area. The dispersed anthraquinone particles were applied at a rate of 1 pint/acre (approximately 50 mg/m^2) on the treated area. […] The differences in the effects of the treated area versus the untreated area were easily noted. […] The geese were repelled from the treated area for approximately two weeks until the turf was cut. After cutting, another treatment was applied. The dispersed anthraquinone particles were applied at a rate of 1/2 pint/acre (approximately 25 mg/m^2) in the same manner of treating one strip of turf bordered by untreated turf. […] The test was continued for approximately two weeks. The test was concluded due to snow.

geese [5] = test: Deterrence of geese from 6.2 acre grassy test site (Example 2); format: in vivo
Protocol: A grassy test site having an area of 6.2 acres was selected within the grounds of a large campus style research complex having a substantial flock of geese in residence, which numbers 250-300 geese during the day and as many as 500 geese in the evening hours. In order to determine when daily observations should be made, the site was observed beforehand to determine the times during which the maximum number of geese were on the test site. Observations were conducted at the same time(s) each day in such manner that the behavior of the geese could be observed without disturbance. In addition, the number of droppings in selected areas of the site were counted each day, recorded and then removed from the test area by raking.
Following 10 days observation of the untreated test site, the above-described goose repellent composition was sprayed on the test area using a calibrated spray tank and a fan-shaped head sprayer. The liquid spray contained one gallon of repellent per 140 gallons of water and the rate of application was 2.77 pounds of AQ per acre of the mixture. In the absence of rain, the applied composition fully dried on the blades of grass within 24 hours.

crows = test: Deterrence of crows from flat roof (Example 4); format: in vivo; settings: 50% by weight aqueous dispersion of 9,10-anthraquinone
Description: as §4
In Philadelphia Pa., a large number of crows, estimated at over two hundred thousand, regularly roosted on the flat roof of an industrial building.

[6] = LD50 in northern bobwhite quail; settings: in vivo, separate study
birds [7] = test: Pen and field observations of bird behavior and adverse effects; format: in vivo
Description: Pen and field observations of bird behavior were made throughout the studies. In no situation were adverse effects or discomfort to the observed birds. In feeding on rice seeds, the birds squeezed the grain from the hull then ejected the hull from their mouths and ate only the inner grain.

red-winged blackbirds = test: Avian perching deterrent test, red-winged blackbirds (Example 7); format: in vivo, Agelaius phoeniceus
Description: as §1
as §2, with “Five (5) groups of blackbirds and cowbirds and 4 groups of fish crows were tested. For blackbirds and cowbirds, there were 4 birds in each test group. For fish crows, we used 2 birds per pen.” left out
as §3

[8] = treated on day 10, following a heavy rain

## O=C1c2ccccc2C(=O)c2ccccc21 [9,10-anthraquinone]
Birds [1]; 2-day trials, perch coated with repellent vs untreated
  preference of test species: each of the 3 test species displayed a preference for the untreated perch over the one coated with repellent
Birds [1]; e.g. decreased activity, fluffed feathers, vomiting
  signs of illness on videotapes: no sign of illness was observed
Birds [1]; in vivo
  discomfort on the treated perch: no indication that they were uncomfortable or bothered by the feel of the perch was observed
  initial reluctance to use the treated perches: No initial reluctance by birds to use the treated perches was observed
Fish crows; 50% AQ coating, SE=0.08, untreated perch 1.28 (SE=0.08), P=0.014
  use of the treated perch: 0.64 birds/min
Fish crows; P=0.014
  use of the untreated perch relative to treated perch: approximately twice
Fish crows; day x perch interaction P=0.090
  use of treated perch from day 1 to day 2: decreased use of the treated perch from day 1 to day 2
brown-headed cowbirds; 50% AQ coating, SE=0.14, untreated perch 1.70 (SE=0.23), P=0.015
  use of the treated perch: 0.62 birds/min
brown-headed cowbirds; day x perch interaction P=0.222
  bird use of each perch on the second day: bird use of each perch declined on the second day
Pigeons [2]
  time following treatment during which pigeons had not returned to the roosting site: more than 30 days
seagulls
  use of treated roof by gulls: the gulls did not further use the surface for roosting
Pigeons [3]
  return of pigeons: the pigeons did not return
Geese [4]; 1/2 pint/acre (approximately 25 mg/m^2), after cutting, about two weeks
  repellency: The same repellency was exhibited
Geese [4]; 1 pint/acre (approximately 50 mg/m^2)
  behavior of geese that entered the treated area: immediately ceased eating, exited the treated area, entered a nearby pond and began to wash or rinse themselves
Geese [5]; 2.77 pounds of AQ per acre, before treatment average about 150 geese
  goose count, second day after application: zero
Geese [5]; 2.77 pounds of AQ per acre, before treatment average about 150 geese (45 to 305)
  goose count, day after application: about 110 geese
Geese [5]; following the treatment
  period for which number of geese remained quite low in treated area vs surrounding untreated areas: more than 3 months
Geese [5]; in vivo
  birds' behavior after treatment of the test area: large numbers of birds were observed milling around, but not entering the treated area
Geese [5]; treated on day 10
  number of geese, days 12-23: only a few geese were observed from time-to-time
Geese [5]; treated on day 10 (over 300 geese), 2.77 pounds of AQ per acre
  number of geese, day 11: 109 geese
Geese [5]; treated on day 10, 2.77 pounds of AQ per acre
  number of geese, day 12: zero
Geese [5]; [8]
  goose count, day 23: 27 geese
  number of droppings, day 23: 13 droppings
Geese [5]; treated on day 10, very low quantity of droppings
  number of geese, day 18: 18 geese
crows
  return of crows: the crows did not return
[6]
  LD50: > 2000 mg/kg
Birds [7]; exposed to anthraquinone on food
  irritation of birds exposed on food: no sign of irritation
Birds [7]; feeding on treated rice seeds
  effect of treated seeds on birds' behavior or pain: did not affect the birds' behavior or induce pain
Birds [7]; grams of feed per day
  effect of consumption on feeding behavior: did not affect feeding behavior
Birds [7]; upon completion of all studies
  death of test birds: No test birds died
red-winged blackbirds; 50% AQ coating, SE=0.06, untreated perch 0.86 (SE=0.10), P=0.067
  use of the treated perch: 0.41 birds/min
red-winged blackbirds; P=0.067
  use of the untreated perch relative to treated perch: more than twice
red-winged blackbirds; day x perch interaction P<0.001
  use of treated perch from day 1 to day 2: decrease use of the treated perch from day 1 to day 2
